Reference: ChEMBL document CHEMBL1140059, “Discovery of potent and selective small-molecule PAR-2 agonists” (J Med Chem, 2008)
Activity calls are given as the source filed them. The rule behind the calls is not given here. Square brackets hold non-standard residues; d marks the D form. Peptide text beside a SMILES is read from it. * marks the point of attachment. Orn = NCCC[C@H](N)C(=O)O; 2Furoyl = O=C(c1ccco1)*

Columns and labels:
[1] = target: Proteinase-activated receptor 2 (Homo sapiens) (UniProt P55085); assay: Agonist activity at human PAR2 expressed in HEK293T cells assessed as effect on intracellular calcium mobilization by R-SAT assay relative to SLIGRL-NH2; assay type: functional, cell-based; details: HEK-293T
[2] = target: T1, Proteinase-activated receptor 2 (Homo sapiens, UniProt P55085); assay: Agonist activity at human PAR2 expressed in HEK293T cells assessed as effect on intracellular calcium mobilization by R-SAT assay; assay type: functional, cell-based, HEK-293T
T1 sequence (P55085 whole entry): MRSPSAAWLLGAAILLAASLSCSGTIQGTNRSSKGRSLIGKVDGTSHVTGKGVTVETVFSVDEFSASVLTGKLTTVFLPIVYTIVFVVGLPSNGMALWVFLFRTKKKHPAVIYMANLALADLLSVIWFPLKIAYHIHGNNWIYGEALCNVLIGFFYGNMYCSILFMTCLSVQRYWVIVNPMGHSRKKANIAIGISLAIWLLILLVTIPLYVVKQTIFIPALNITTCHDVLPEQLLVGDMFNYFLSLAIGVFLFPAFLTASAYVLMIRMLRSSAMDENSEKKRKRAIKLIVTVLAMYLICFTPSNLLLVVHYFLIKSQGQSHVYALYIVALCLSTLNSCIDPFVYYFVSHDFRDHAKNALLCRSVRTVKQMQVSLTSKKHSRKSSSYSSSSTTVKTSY

[3] = target: T2, Proteinase-activated receptor 4 (Homo sapiens) (UniProt Q96RI0); assay: Agonist activity at PAR4; assay type: functional
T2 sequence (whole entry): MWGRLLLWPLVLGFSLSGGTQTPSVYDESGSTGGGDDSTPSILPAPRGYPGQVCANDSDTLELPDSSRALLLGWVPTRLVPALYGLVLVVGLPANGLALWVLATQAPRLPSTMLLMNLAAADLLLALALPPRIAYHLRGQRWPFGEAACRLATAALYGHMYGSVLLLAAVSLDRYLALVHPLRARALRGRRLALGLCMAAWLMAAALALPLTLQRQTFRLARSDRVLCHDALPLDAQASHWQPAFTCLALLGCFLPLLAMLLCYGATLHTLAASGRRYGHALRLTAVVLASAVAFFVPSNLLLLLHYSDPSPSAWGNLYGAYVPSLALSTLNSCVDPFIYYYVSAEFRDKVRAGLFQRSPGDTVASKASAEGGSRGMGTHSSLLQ

[4] = target: Proteinase-activated receptor 2 (Homo sapiens) (UniProt P55085); assay: Agonist activity at human PAR2 expressed in HEK293T cells assessed as effect on phosphatidyl inositol hydrolysis; assay type: functional, cell-based; details: HEK-293T
[5] = target: T3, Proteinase-activated receptor 3 (Homo sapiens) (UniProt O00254); assay: Agonist activity at PAR3; assay type: functional
T3 sequence (whole entry): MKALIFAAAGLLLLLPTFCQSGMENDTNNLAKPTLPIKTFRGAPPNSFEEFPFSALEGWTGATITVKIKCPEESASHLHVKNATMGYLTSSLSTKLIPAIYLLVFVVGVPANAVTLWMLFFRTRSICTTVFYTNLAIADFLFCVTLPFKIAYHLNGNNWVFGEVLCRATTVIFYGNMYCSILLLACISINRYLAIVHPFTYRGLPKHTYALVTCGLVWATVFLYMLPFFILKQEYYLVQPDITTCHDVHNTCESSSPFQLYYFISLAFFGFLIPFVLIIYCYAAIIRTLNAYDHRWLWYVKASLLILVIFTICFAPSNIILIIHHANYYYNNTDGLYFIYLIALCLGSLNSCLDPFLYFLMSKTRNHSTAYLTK

Rattus norvegicus [6] = assay: Induction of inflammation assessed as incidence of paw edema in intrapaw dosed rat; assay type: functional, organism-based
Rattus norvegicus [7] = assay: Induction nociception assessed as incidence of thermal hyperalgesia in intrapaw dosed rat; assay type: functional, organism-based
[8] = Metabolic stability in human liver microsomes assessed as intrinsic clearance; assay type: ADME, Microsome
[9] = Metabolic stability in rat liver microsomes assessed as intrinsic clearance; assay type: ADME, Microsome
[10] = target: T4, Proteinase-activated receptor 1 (Homo sapiens) (UniProt P25116); assay: Agonist activity at PAR1; assay type: functional
T4 sequence (whole entry): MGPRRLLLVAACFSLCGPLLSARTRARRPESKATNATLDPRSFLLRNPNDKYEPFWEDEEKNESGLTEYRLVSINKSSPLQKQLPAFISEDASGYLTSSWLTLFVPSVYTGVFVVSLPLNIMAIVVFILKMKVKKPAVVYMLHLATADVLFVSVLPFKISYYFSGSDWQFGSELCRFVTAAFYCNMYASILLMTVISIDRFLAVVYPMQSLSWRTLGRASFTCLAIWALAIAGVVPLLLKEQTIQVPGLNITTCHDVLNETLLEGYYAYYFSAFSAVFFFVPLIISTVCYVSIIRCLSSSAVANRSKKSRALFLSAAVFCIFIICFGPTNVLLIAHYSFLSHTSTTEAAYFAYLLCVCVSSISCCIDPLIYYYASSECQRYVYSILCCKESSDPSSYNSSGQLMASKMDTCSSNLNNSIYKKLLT

[11] = Solubility in presence of 25% Tween; assay type: physicochemical

Row | Efficacy [1] [%] | EC50 [2] [nM] | Molecule | other results
1 | 32 | 7940 | C/C(=N\NC(=O)[C@@H]1C(=O)NC[C@H]1c1ccccc1)c1ccc(Br)cc1 | 
2 |  | 31.6 | C/C(=N\NC(=O)[C@@H]1C(=O)NC[C@H]1c1ccccc1)c1cccc(Br)c1 (stereo in doubt; 3) [listing 1 of 2 here] | solubility [11]: > 2000 µg/mL; microsomal CLint [8]: 9 µL/min/mg; microsomal CLint [9]: 37 µL/min/mg
3 | 93 |  | C/C(=N\NC(=O)[C@@H]1C(=O)NC[C@H]1c1ccccc1)c1cccc(Br)c1 (stereo in doubt; 3) [listing 2 of 2 here] | Activity [3]: inactive; Activity [4]: Active; Activity [5]: inactive; Activity (Rattus norvegicus [6]): Dose-dependent effect; Activity (Rattus norvegicus [7]): Dose-dependent effect; Activity [10]: inactive
4 | 10 |  | C/C(=N\NC(=O)[C@@H]1C(=O)NC[C@H]1c1ccccc1)c1cccc(Br)c1 (stereo in doubt; (-)-3) [listing 1 of 2 here] | 
5 | 91 |  | C/C(=N\NC(=O)[C@@H]1C(=O)NC[C@H]1c1ccccc1)c1cccc(Br)c1 (stereo in doubt; (+)-3) [listing 1 of 2 here] | 
6 |  | > 10000 | C/C(=N\NC(=O)[C@@H]1C(=O)NC[C@H]1c1ccccc1)c1cccc(Br)c1 (stereo in doubt; (-)-3) [listing 2 of 2 here] | 
7 |  | 31.6 | C/C(=N\NC(=O)[C@@H]1C(=O)NC[C@H]1c1ccccc1)c1cccc(Br)c1 (stereo in doubt; (+)-3) [listing 2 of 2 here] | 

Second part, the molecule before the results:

Row | Molecule | Efficacy [1] [%] | EC50 [2] [nM] | other results
8 | C/C(=N\N(C)C(=O)[C@@H]1C(=O)NC[C@H]1c1ccccc1)c1cccc(Br)c1 | 35 | 6310 | 
9 | C/C(=N\NC(=O)C(NC(=O)c1ccccc1)c1n[nH]c(=O)c2ccccc12)c1cccc(Br)c1 (stereo not given) | 81 | 200 | Activity [3]: inactive; Activity [4]: Active; Activity [5]: inactive; Activity (Rattus norvegicus [6]): Dose-dependent effect; Activity (Rattus norvegicus [7]): Dose-dependent effect; microsomal CLint [8]: 19 µL/min/mg; microsomal CLint [9]: 6 µL/min/mg; Activity [10]: inactive
10 | C/C(=N\NC(=O)[C@@H]1C(=O)NC[C@H]1c1ccccc1)c1ccc(Br)s1 | 49 | 2510 | 
11 | H-SLIGRL-NH2 | 100 | 10000 | 
12 | CC[C@H](C)[C@H](NC(=O)[C@H](CC(C)C)NC(=O)c1ccco1)C(=O)NCC(=O)N[C@@H](CCCNC(=N)N)C(=O)N[C@@H](CC(C)C)C(=O)N[C@@H](CCCN)C(N)=O (2Furoyl-LIGRL[Orn]-NH2) | 89 |  | 
13 | C/C(=N\NC(=O)[C@@H]1C(=O)NC[C@H]1c1cccc(Br)c1)c1cccc(Br)c1 | 82 | 25.1 | 
14 | CC[C@H](C)[C@H](NC(=O)[C@H](CC(C)C)NC(=O)c1ccco1)C(=O)NCC(=O)N[C@@H](CCCN=C(N)N)C(=O)N[C@@H](CC(C)C)C(=O)N[C@@H](CCCN)C(N)=O (2Furoyl-LIGRL[Orn]-NH2) |  | 25.1 | 
15 | C/C(=N\NC(=O)[C@@H]1C(=O)NC[C@H]1c1ccccc1)c1ccccc1Br | 11 | 10000 | 
16 | CC(C)=CN1C[C@@H](c2ccccc2)[C@H](C(=O)N/N=C(\C)c2cccc(Br)c2)C1=O | 72 | 50.1 | 
17 | C/C(=N\NC(=O)[C@@H]1C(=O)NC[C@H]1c1ccccc1)c1cccs1 | 30 | 6310 | 
18 | O=C1NC[C@@H](c2ccccc2)[C@@H]1C(=O)N/N=C1\CCc2ccc(Br)cc21 | 62 | 126 | 
